Results published in patent publication US6638916B1, “Use of sulfated oligosaccharides as inhibitors of cardiovascular disease” (The Australian National University, priority 1997, dated 2003).
Marks after values point to notes of the source that are not given here.

What was measured:
[1] = tested on: vascular intimal hyperplasia; test: Balloon dilation model of vascular intimal hyperplasia (carotid artery); format: in vivo, rat
Excerpt: In the second procedure, a traditional balloon dilation model, based essentially on the method described by Clowes et al.^8 was used. Thirteen male Wistar rats (16-20 weeks of age) were anaesthetised (avertin) and the left common carotid artery exteriorised via a ventral midline incision. A padded vascular clamp was applied to the most caudal end of the exteriorised artery. Following arteriotomy a 2 F Fogarty balloon catheter was inserted into the carotid artery, the vascular clamp removed and the catheter advanced 1-1.5 cm in a caudal direction. The balloon was inflated using a 0.12 cc of air and the catheter was withdrawn to the point of arterial insertion. The balloon was then deflated and this procedure was repeated twice more. On the third withdrawal the balloon was deflated, the catheter removed from the artery and simultaneously a padded vascular clamp applied immediately caudal to the arteriotomy but leaving room for the subsequent application of a ligature (5/0 silk). […]
In the second procedure employing the balloon dilation model, the degree of vascular intimal hyperplasia was calculated as a percentage of the total area of the vessel cross-section. Specifically, the percentage of hyperplasia was determined to be the area of the tunica intima divided by the cross-sectional area of the artery.

[2] = tested on: saponin-induced vascular hyperplasia; test: Saponin-induced vascular hyperplasia model (carotid artery endothelial denudation); format: in vivo, rat; settings: for effect on saponin-induced smooth muscle cell hyperplasia (histology, in words): rat carotid artery 14 days after saponin denudation, 35 mg/kg/day days 1 to 14 by miniosmotic pump, 35 mg/kg/day
Method: In order to induce vascular hyperplasia two procedures were used. In the first procedure, male Fisher 344 rats (18→30 weeks of age) were anaesthetised and approximately a 1 cm length of one of the carotid arteries exteriorised by dissection. The 1 cm arterial segment was clamped at both ends with padded artery clamps. A small volume of saponin solution (0.5 mg/ml in PBS) was injected, via a 30 gauge needle, into the arterial segment, left for 2 min and then withdrawn by suction. The 1 cm arterial section was ligated (5/0 silk) on each side of the needle hole and the arterial clamps removed, the artery reinteriorised and the wound sutured. On the following day animals were divided into control and treatment groups. The treatment group received the sulfated oligosaccharide, sulfated mannopentaose phosphate (PI-88) at a dose of 35 mg/kg/day for the next 14 days delivered via subcutaneously implanted miniosmotic pumps (Alzet 2ML2). Control animals were given the miniosmotic pumps containing saline. After 2 weeks the animals were anaesthetised (pentobarbitone), perfused with 10% buffered formalin for 20 minutes, euthanised (Pentobarbitone) and the denuded arterial segments were removed and processed for histological examination. The degree of intimal hyperplasia was determined using digital image analysis.
The saponin-induced vascular hyperplasia model used in this study is a new procedure which has several important features which should be highlighted. First, brief exposure to the detergent saponin is used to denude the arterial wall of endothelial cells. Such a procedure is similar to the endothelial denudation resulting from balloon angioplasty. Second, massive vascular smooth muscle hyperplasia is observed in the saponin-treated carotid artery 14 days after saponin exposure (FIG. 1) when compared with the carotid artery from an untreated control animal (FIG. 2). In fact, almost complete occlusion of the blood vessel is observed in the saponin-treated vessel (FIG. 1). Third, based on control experiments, the saponin-induced vascular hyperplasia model represents an excellent system for screening of drugs which inhibit vascular hyperplasia, a process which occurs in atherosclerotic plaques and in angioplasty-associated restenosis.

“sulfated mannopentaose phosphate [PI-88]” was tested, and the “effect on vascular intimal hyperplasia (in words)” value ([1]; balloon dilation model, 35 mg/kg/day via miniosmotic pumps) was “statistically significant (P=0.0008) reduction in vascular intimal hyperplasia”, the Percentage of neointima ([1]; male Wistar rats, balloon catheter dilation of left common carotid artery, 35 mg/kg/day for two weeks via subcutaneous miniosmotic pump, area of tunica intima divided by cross-sectional area of artery, saline control 57.66) was 36.02^a % and the “Arterial Wall Thickness” value ([2]; male Fisher 344 rats, saponin denudation of carotid artery, 35 mg/kg/day for 14 days via subcutaneous miniosmotic pump, mean ± SEM, P = 0.08 vs control) was 266.7 ± 27.7^b μm. The “Arterial Wall Thickness % Control” value ([2]; male Fisher 344 rats, saponin denudation, 35 mg/kg/day for 14 days via miniosmotic pump, saline control = 100, mean ± SEM, P = 0.08) was 66.4 ± 6.9^b %, the “effect on saponin-induced smooth muscle cell hyperplasia (histology, in words)” value [2] was “reduction in the saponin-induced vascular hyperplasia” and the “effect on saponin-induced smooth muscle cell hyperplasia (histology, in words)” value ([2]; listed as sulfated mannopentaose phosphate) was “substantial reduction in smooth muscle cell hyperplasia”. For the same substance, the “inhibition of vascular hyperplasia compared with untreated control animals” value ([2]; saponin model, 35 mg/kg/day via miniosmotic pumps, histological examination of carotid arteries, P=0.08) was 34%.
